# Reference: US20230253066A1, “DESIGNED PROTEINS FOR LIGAND BINDING” (The Regents of the University of California, priority 2020, published 2023)
# pKd: −log10 of the molar value.
# Molecular target: ABLE
# Experiment: Fluorescence anisotropy ligand competition on ABLE (displacement of apixaban-peg-FITC)
# Format: binding
# Description: We performed fluorescence anisotropy experiments (54, 55) of ABLE and LABLE using a FITC fluorophore conjugated to apixaban as the fluorescent probe (FIGS. 512A-512D and Scheme 1). We serially diluted a concentrated protein solution containing 25 nM Apx-peg-FITC, holding constant the concentration of Apx-peg-FITC. Parallel and perpendicularly polarized emission at 528 nm (10 nm slit width, 510 nm long pass filter) were integrated for 10 seconds after 485 nm (5 nm slit width) excitation of the FITC fluorophore of Apx-peg-FITC. The data were fit to a single-site binding model (Equation 2, with N=1) (FIG. S12B). We performed ligand competition experiments (54, 55) by adding aliquots of a concentrated ligand stock in DMSO into an approximately 50% bound complex of protein and Apx-peg-FITC (25 nM). The decrease in anisotropy as a function of competing ligand was fit to a competitive binding model (54, 55) (FIG. 4D and FIG. S12C and FIG. S12D). Because effects of DMSO on the anisotropy of bound ABLE/Apx-peg-FITC complex become more pronounced at high concentrations of DMSO (>4%), we fit only the initial data points at low DMSO concentration (% DMSO <2%, FIG. 4D). […] DMSO may have a minor effect on competitive binding with weaker competitors (i.e., apixabanCOO^− and rivaroxaban), where high concentrations of competitor are needed to decrease anisotropy. As such, the reported dissociation constants of these weaker competitors can be viewed as a lower limit to the KD. Fluorescence polarization competition with apixaban as competitor gives a KD of 7 (±1) μM for the apixaban/ABLE complex (FIG. 4D), which agrees with that of the more precise spectral titration [KD=5 (±1) μM]. Binding experiments were performed at least twice to confirm reproducibility, and the reported errors correspond to the uncertainty in the fit parameters.
Structure (SMILES),"pKd (ABLE 20 μM, apixaban-peg-FITC 25 nM, 50 mM NaPi, 100 mM NaCl, pH 7.4, fit of initial points at DMSO <2%, KD of weaker competitors viewed as lower limit, read-out: KD of competing ligand for ABLE, competitive binding model)","fold tighter binding to ABLE than rivaroxaban (fluorescence polarization competition, FIG. 4D) [fold]",binding to ABLE (in words) (competition with apixaban-peg-FITC)
COc1ccc(-n2nc(C(N)=O)c3c2C(=O)N(c2ccc(N4CCCCC4=O)cc2)CC3)cc1 [apixaban],5.15,20,–
O=C(NC[C@H]1CN(c2ccc(N3CCOCC3=O)cc2)C(=O)O1)c1ccc(Cl)s1 [rivaroxaban],–,–,only very weak binding
